Laboratory results published in patent US20180119123A1, “CRISPR/CAS-RELATED METHODS AND COMPOSITIONS FOR TREATING HIV INFECTION AND AIDS” (EDITAS MEDICINE, INC., priority 2015, published 2018).

Key:
[1] = test system: human mobilized peripheral blood CD34^+ HSCs; test: Fold change in CD34+ cell number (trypan blue count) 96 hours after Nucleofection; assay type: cell-based; conditions: Nucleofection with wild type Cas9 and CCR5-U43 gRNA plasmid DNA + vehicle treatment (no UM171)
Experimental: (§1) Human CD34^+ HSCs cells from mobilized peripheral blood (AllCells) were thawed into StemSpan Serum-Free Expansion Medium (SFEM™, StemCell Technologies) containing 100 ng/mL each of the following cytokines: human stem cell factor (SCF), thrombopoietin (TPO), and flt-3 ligand (FL) (all from Peprotech). Cells were grown for 3 days in a humidified incubator and 5% CO2 20% O2. […] The published use of UM171 involved prolonged exposure of HSCs to the small molecule for ex vivo expansion of HSCs. In the current experiment, HSCs were exposed to UM171 for 2 hours before and 24 hours after delivery of Cas9 and gRNA plasmid DNA. This UM171 treatment protocol was based on pilot studies performed by the inventors that indicated acute pre-treatment with UM171 before lentivirus vector mediated gene delivery improved HSC viability compared to HSCs treated with vehicle (dimethylsulfoxide, DMSO, Sigma) alone. […] At 96 hours after Nucleofection™, CD34^+ cells were counted for by trypan blue exclusion and divided into 3 portions for the following analyses: a) flow cytometry analysis for assessment of viability by co-staining with 7-Aminoactinomycin-D (7-AAD) and allophycocyanin (APC)-conjugated Annexin-V antibody (ebioscience); b) flow cytometry analysis for maintenance of HSC phenotype (after co-staining with phycoerythrin (PE)-conjugated anti-human CD34 antibody and fluorescein isothicyanate (FITC)-conjugated anti-human CD90, both from BD Bioscience; c) hematopoietic colony forming cell (CFC) analysis by plating 1500 cells in semi-solid methylcellulose based Methocult medium (StemCell Technologies) that supports differentiation of erythroid and myeloid blood cell colonies from HSCs and serves as a surrogate assay to evaluate HSC multipotency and differentiation potential ex vivo; d) genomic DNA analysis for detection of editing at the CCR5 locus. […]

[2] = test system: human mobilized peripheral blood CD34^+ HSCs; test: Viability by 7-AAD / Annexin-V flow cytometry 96 hours after Nucleofection; assay type: cell-based; conditions: Nucleofected with Cas9 and CCR5 gRNA plasmids after pre-treatment with UM171; 96 hours
Experimental: as §1

CD34^+ HSCs = test: Hematopoietic colony forming cell (CFC) assay in Methocult medium; assay type: cell-based, human; conditions: Nucleofection with wild-type Cas9 and CCR5-U43 gRNA plasmid DNA + vehicle (no UM171); two weeks
Experimental: Human CD34^+ HSCs cells from mobilized peripheral blood (AllCells) were thawed into StemSpan Serum-Free Expansion Medium (SFEM™, StemCell Technologies) containing 100 ng/mL each of the following cytokines: human stem cell factor (SCF), thrombopoietin (TPO), and flt-3 ligand (FL) (all from Peprotech). Cells were grown for 3 days in a humidified incubator and 5% CO2 20% O2. […] The published use of UM171 involved prolonged exposure of HSCs to the small molecule for ex vivo expansion of HSCs. In the current experiment, HSCs were exposed to UM171 for 2 hours before and 24 hours after delivery of Cas9 and gRNA plasmid DNA. This UM171 treatment protocol was based on pilot studies performed by the inventors that indicated acute pre-treatment with UM171 before lentivirus vector mediated gene delivery improved HSC viability compared to HSCs treated with vehicle (dimethylsulfoxide, DMSO, Sigma) alone. After the 2-hour pretreatment with UM171, 1 million […] HSCs were Nucleofected™ with the Amaxa™ 4D Nucleofector™ device (Lonza), Program EO100 using components of the P3 Primary Cell 4D-Nucleofector Kit™ (Lonza) according to the manufacturer's instructions. Briefly, one million cells were suspended in Nucleofector™ solution and the following amounts of plasmid DNA were added to the cell suspension: 1250 ng plasmid expressing CCR5 gRNA (CCR5-U43) from the human U6 promoter and 3750 ng plasmid expressing wild-type S. pyogenes Cas 9 transcriptionally regulated by the CMV promoter. After Nucleofection™, cells were plated into Stemspan-SFEM™ supplemented with SCF, TPO, FL and 40 nM UM171. After overnight incubation, HSCs were plated in Stemspan-SFEM™ plus cytokines without UM171. At 96 hours after Nucleofection™, CD34^+ cells were counted for by trypan blue exclusion and divided into 3 portions for the following analyses: a) flow cytometry analysis for assessment of viability by co-staining with 7-Aminoactinomycin-D (7-AAD) and allophycocyanin (APC)-conjugated Annexin-V antibody (ebioscience); b) flow cytometry analysis for maintenance of HSC phenotype (after co-staining with phycoerythrin (PE)-conjugated anti-human CD34 antibody and fluorescein isothicyanate (FITC)-conjugated anti-human CD90, both from BD Bioscience; c) hematopoietic colony forming cell (CFC) analysis by plating 1500 cells in semi-solid methylcellulose based Methocult medium (StemCell Technologies) that supports differentiation of erythroid and myeloid blood cell colonies from HSCs and serves as a surrogate assay to evaluate HSC multipotency and differentiation potential ex vivo; d) genomic DNA analysis for detection of editing at the CCR5 locus. Genomic DNA was extracted from HSCs 96 hours after Nucleofection™, and CCR5 locus-specific PCR reactions were performed.
To evaluate maintenance of HSC potency and differentiation potential, two weeks after plating CD34^+ HSCs in CFC assays, hematopoietic activity was quantified based on scoring the HSC progeny by enumerating the total number of hematopoietic colony forming units (CFU) and the frequencies of specific blood cell phenotypes, including: mixed myeloid/erythroid (Granulocyte-erythroid-monocyte macrophage, CFU-GEMM), myeloid (CFU-macrophage (M), granulocyte-macrophage (CFU-GM)) and erythroid (CFU-E) colonies. CD34^+ HSCs that were Nucleofected™ after UM171 pre-treatment maintained CFC potential compared to un-Nucleofected™ HSCs (Table 12). In contrast, CD34^+ HSCs that were Nucleofected™ without UM171 pre-treatment had reduced CFC potential (lower total CFC counts and reduced numbers of mixed-phenotype colonies (CFU-GEMM) and erythroid colonies (CFU-E)) in comparison to un-Nucleofected™ CD34^+ HSCs.
Human CD34^+ HSCs cells from mobilized peripheral blood (AllCells) were thawed into StemSpan Serum-Free Expansion Medium (SFEM, StemCell Technologies) containing 100 ng/mL each of the following cytokines: human stem cell factor (SCF), thrombopoietin (TPO), and flt-3 ligand (FL) (all from Peprotech). […]

[3] = test system: human mobilized peripheral blood CD34^+ HSCs; test: Maintenance of HSC phenotype (CD34/CD90 co-staining, flow cytometry); assay type: cell-based; conditions: Cas9 and CCR5 gRNA plasmids after pre-treatment with UM171; 96 hours
Experimental: Human CD34^+ HSCs cells from mobilized peripheral blood (AllCells) were thawed into StemSpan Serum-Free Expansion Medium (SFEM™, StemCell Technologies) containing 100 ng/mL each of the following cytokines: human stem cell factor (SCF), thrombopoietin (TPO), and flt-3 ligand (FL) (all from Peprotech). Cells were grown for 3 days in a humidified incubator and 5% CO2 20% O2. […] The published use of UM171 involved prolonged exposure of HSCs to the small molecule for ex vivo expansion of HSCs. In the current experiment, HSCs were exposed to UM171 for 2 hours before and 24 hours after delivery of Cas9 and gRNA plasmid DNA. This UM171 treatment protocol was based on pilot studies performed by the inventors that indicated acute pre-treatment with UM171 before lentivirus vector mediated gene delivery improved HSC viability compared to HSCs treated with vehicle (dimethylsulfoxide, DMSO, Sigma) alone. After the 2-hour pretreatment with UM171, 1 million […] HSCs were Nucleofected™ with the Amaxa™ 4D Nucleofector™ device (Lonza), Program EO100 using components of the P3 Primary Cell 4D-Nucleofector Kit™ (Lonza) according to the manufacturer's instructions. […]

## GCUGCCGCCCAGUGGGACUU (chemistry not given here) [CCR5-U43, S. pyogenes gRNA targeting CCR5; delivered as U6-promoter plasmid with Cas9 plasmid]
[1]
  Fold change in cell number of CD34^+ cells (96 hours vs. time 0 cell number): 0.6
[2]
  viability (7-AAD^− AnnexinV^-): > 93%
CD34^+ HSCs
  Number of colony forming units: E: 18 colony forming units per 1500 CD34^+ HSCs plated
  Number of colony forming units: G: 22 colony forming units per 1500 CD34^+ HSCs plated
  Number of colony forming units: GEMM: 1 colony forming units per 1500 CD34^+ HSCs plated
  Number of colony forming units: GM: 1 colony forming units per 1500 CD34^+ HSCs plated
  Number of colony forming units: M: 6 colony forming units per 1500 CD34^+ HSCs plated
  Number of colony forming units: Total: 28 colony forming units per 1500 CD34^+ HSCs plated
[3]
  co-expression of CD34 and CD90: maintained co-expression of CD34 and CD90
